Laboratory results reported in patent publication US20070129344A1, “Bicyclic 6-alkylidene-penem beta-lactamase inhibitors and beta-lactam antibiotic combination: a broad spectrum antibiotic” (priority 2005, published 2007).
≈ marks a conversion by molar mass, not a printed value. Like-named read-outs stand apart in the source and are kept apart here.

Assays:
Format in all cases: cell-based
E. coli GC 2804 (imp) = experiment: MIC microbroth dilution; β-lactamase class none; conditions: Escherichia coli, Cefepime alone
Procedure: (§1) The in vitro activities of the antibiotics were determined by the microbroth dilution method as recommended by the National Committee for Clinical Laboratory Standards (NCCLS). (NCCLS. 2000. Methods for Dilution Antimicrobial Susceptibility Tests for Bacteria That Grow Aerobically; Approved Standards: M7-A5, vol. 19. National Committee for Clinical Laboratory Standards, Villanova, Pa.). Mueller-Hinton II broth (MHBII)(BBL Cockeysville, Md.), was used for the testing procedure. […]. The plates were incubated for 18-22 hours at 35° C. in ambient air.

E. coli GC 2844 (none) = experiment: MIC microbroth dilution; β-lactamase class none; conditions: Cefepime alone
Procedure: as §1

[1] = tested on: E. coli ATCC 25922 (none); experiment: MIC microbroth dilution; β-lactamase class none; conditions: Escherichia coli, ATCC25922, E. coli ATCC 25922, Cefepime alone, read-out: MIC
Procedure: as §1

[2] = tested on: K. pneumoniae GC 7632 TEM-1 KPC-2, SHV-7, SHV-12; experiment: MIC microbroth dilution; β-lactamase class A, A (Cb'ase), A (ESBL); conditions: Cefepime alone
Procedure: as §1

[3] = tested on: E. cloacae PT 967 Inducible AmpC; experiment: MIC microbroth dilution; β-lactamase class C; conditions: Cefepime alone
Procedure: as §1

E. cloacae GC 1475 (P99) = experiment: MIC microbroth dilution; β-lactamase class C; conditions: Cefepime alone
Procedure: as §1

[4] = tested on: P. aeruginosa GC 3153 Inducible AmpC; experiment: MIC microbroth dilution; β-lactamase class C; conditions: Cefepime alone
Procedure: as §1

[5] = tested on: E. cloacae GC 6991 (AmpC); experiment: MIC microbroth dilution; β-lactamase class C; conditions: Enterobacter cloacae, Cefepime alone, read-out: MIC
Procedure: as §1

[6] = tested on: P. aeruginosa GC 1763 AmpC-inducible; experiment: MIC microbroth dilution; β-lactamase class C; conditions: Cefepime alone
Procedure: as §1

[7] = tested on: P. aeruginosa GC 1764 (AmpC); experiment: MIC microbroth dilution; β-lactamase class C; conditions: Cefepime alone
Procedure: as §1

[8] = tested on: P. aeruginosa ATCC 27853 AmpC-inducable; experiment: MIC microbroth dilution; β-lactamase class C
Procedure: as §1

[9] = tested on: S. marcescens GC 4145 Inducible AmpC; experiment: MIC microbroth dilution; β-lactamase class C; conditions: Serratia marcescens, Cefepime alone, read-out: MIC
Procedure: as §1

[10] = tested on: E. cloacae GC 4142 (AmpC); experiment: MIC microbroth dilution; β-lactamase class C; conditions: Enterobacter cloacae, Cefepime alone, read-out: MIC
Procedure: as §1

[11] = tested on: S. marcescens GC 4132 (AmpC); experiment: MIC microbroth dilution; β-lactamase class C; conditions: Serratia marcescens, Cefepime alone, read-out: MIC
Procedure: as §1

[12] = tested on: K. pneumoniae GC 7823 Fox 5; experiment: MIC microbroth dilution; β-lactamase class C; conditions: Klebsiella pneumoniae, GC7823FOX5, K. pneumoniae GC 7823, Cefepime alone, read-out: MIC
Procedure: as §1

[13] = tested on: A. baumannii GC 7687 AmpC; experiment: MIC microbroth dilution; β-lactamase class C; conditions: Cefepime alone
Procedure: as §1

[14] = tested on: E. cloacae GC 1712 AmpC-inducible; experiment: MIC microbroth dilution; β-lactamase class C; conditions: Cefepime alone
Procedure: as §1

[15] = tested on: E. cloacae PT 1494 Inducible AmpC; experiment: MIC microbroth dilution; β-lactamase class C; conditions: Cefepime alone
Procedure: as §1

[16] = tested on: K. pneumoniae GC 7820 Act 1; experiment: MIC microbroth dilution; β-lactamase class C; conditions: Klebsiella pneumoniae, GC7820ACT1, K. pneumoniae GC 7820, Cefepime alone, read-out: MIC
Procedure: as §1

E. coli GC 2894 (AmpC) = experiment: MIC microbroth dilution; β-lactamase class C; conditions: Escherichia coli, Cefepime alone, read-out: MIC
Procedure: as §1

[17] = tested on: A. baumannii GC 7684 AmpC, AmpC; experiment: MIC microbroth dilution; β-lactamase class C; conditions: Cefepime alone
Procedure: as §1

[18] = tested on: E. cloacae GC 1477 (AmpC); experiment: MIC microbroth dilution; β-lactamase class C; conditions: Enterobacter cloacae, Cefepime alone, read-out: MIC
Procedure: as §1

[19] = tested on: E. aerogenes 1697-MP GC 7845 AmpC; experiment: MIC microbroth dilution; β-lactamase class C; conditions: E. aerogenes GC 7845, Cefepime alone
Procedure: as §1

[20] = tested on: K. pneumoniae GC 7821 DHA 1; experiment: MIC microbroth dilution; β-lactamase class C; conditions: Klebsiella pneumoniae, GC7821DHA1, K. pneumoniae GC 7821, Cefepime alone, read-out: MIC
Procedure: as §1

E. coli GC 6539 CMY-2 = experiment: MIC microbroth dilution; β-lactamase class C
Procedure: as §1

[21] = tested on: K. pneumoniae GC 7824 Fox 5; experiment: MIC microbroth dilution; β-lactamase class C
Procedure: as §1

[22] = tested on: K. pneumoniae GC 7822 Act 1; experiment: MIC microbroth dilution; β-lactamase class C
Procedure: as §1

[23] = tested on: S. marcescens PT 696 Inducible AmpC; experiment: MIC microbroth dilution; β-lactamase class C; conditions: Serratia marcescens, Cefepime alone, read-out: MIC
Procedure: as §1

[24] = tested on: C. freundii GC 4164 Inducible AmpC; experiment: MIC microbroth dilution; β-lactamase class C; conditions: Cefepime alone
Procedure: as §1

[25] = tested on: E. coli GC 4971 OXA-1, TEM-1; experiment: MIC microbroth dilution; β-lactamase class A, D; conditions: Escherichia coli, Cefepime alone, read-out: MIC
Procedure: as §1

[26] = tested on: M. morganii GC 1617 TEM-10 + inducible AmpC; experiment: MIC microbroth dilution; β-lactamase class A (ESBL), C; conditions: Cefepime alone
Procedure: as §1

[27] = tested on: E. aerogenes GC 7036 TEM-24, Amp C inducable; experiment: as above; conditions: Klebsiella aerogenes, Cefepime alone, read-out: MIC
Procedure: as §1

[28] = tested on: E. cloacae GC 7065 TEM-26, SHV-12 Amp C inducable; experiment: as above; conditions: Enterobacter cloacae, Cefepime alone, read-out: MIC
Procedure: as §1

[29] = tested on: E. aerogenes GC 7039 TEM-4, Amp C inducable; experiment: as above; conditions: Klebsiella aerogenes, Cefepime alone, read-out: MIC
Procedure: as §1

[30] = tested on: E. cloacae GC 7052 SHV-5, Amp C inducable; experiment: as above; conditions: Cefepime alone
Procedure: as §1

[31] = Enterobacter cloacae, control of Compound 1 test, read-out: MIC
[32] = Pseudomonas aeruginosa, control of Compound 1 test, read-out: MIC
[33] = Cefepime alone, control of Compound 2 test

Compound: CO/N=C(\C(=O)N[C@@H]1C(=O)N2C(C(=O)[O-])=C(C[N+]3(C)CCCC3)CS[C@H]12)c1csc(N)n1 [Cefepime, reference compound]
- MIC (E. coli GC 2804 (imp); control of Compound 1 test): 0.03 µg/mL (≈ 0.0624 µM)
- MIC (E. coli GC 2804 (imp); control of Compound 2 test): < 0.015 µg/mL
- MIC (E. coli GC 2844 (none); control of Compound 2 test): 0.06 µg/mL (≈ 0.125 µM)
- MIC (E. coli GC 2844 (none); Escherichia coli, control of Compound 1 test, read-out: MIC): 0.06 µg/mL (≈ 0.125 µM)
- MIC ([1]; control of Compound 1 test): 0.03 µg/mL (≈ 0.0624 µM)
- MIC ([1]; control of Compound 2 test): 0.06 µg/mL (≈ 0.125 µM)
- MIC ([2]; control of Compound 2 test): >16 µg/mL
- MIC ([2]; Klebsiella pneumoniae, control of Compound 1 test, read-out: MIC): > 16 µg/mL
- MIC ([3]; control of Compound 2 test): 0.12 µg/mL (≈ 0.25 µM)
- MIC [3, 31]: 0.12 µg/mL (≈ 0.25 µM)
- MIC (E. cloacae GC 1475 (P99); control of Compound 2 test): 2 µg/mL (≈ 4.16 µM)
- MIC (E. cloacae GC 1475 (P99); [31]): 2 µg/mL (≈ 4.16 µM)
- MIC ([4]; control of Compound 2 test): 16 µg/mL (≈ 33.3 µM)
- MIC [4, 32]: 16 µg/mL (≈ 33.3 µM)
- MIC ([5]; control of Compound 1 test): 0.5 µg/mL (≈ 1.04 µM)
- MIC ([5]; control of Compound 2 test): 1 µg/mL (≈ 2.08 µM)
- MIC ([6]; control of Compound 2 test): 2 µg/mL (≈ 4.16 µM)
- MIC [6, 32]: 2 µg/mL (≈ 4.16 µM)
- MIC ([7]; control of Compound 2 test): 8 µg/mL (≈ 16.6 µM)
- MIC [7, 32]: 8 µg/mL (≈ 16.6 µM)
- MIC [8, 33]: 2 µg/mL (≈ 4.16 µM)
- MIC ([8]; Pseudomonas aeruginosa, ATCC27853, Cefepime alone, control of Compound 1 test, read-out: MIC): 2 µg/mL (≈ 4.16 µM)
- MIC ([9]; control of Compound 1 test): 1 µg/mL (≈ 2.08 µM)
- MIC ([9]; control of Compound 2 test): 0.5 µg/mL (≈ 1.04 µM)
- MIC ([10]; control of Compound 1 test): > 16 µg/mL
- MIC ([10]; control of Compound 2 test): 8 µg/mL (≈ 16.6 µM)
- MIC ([11]; control of Compound 1 test): 0.5 µg/mL (≈ 1.04 µM)
- MIC ([11]; control of Compound 2 test): 2 µg/mL (≈ 4.16 µM)
- MIC ([12]; control of Compound 1 test): 0.5 µg/mL (≈ 1.04 µM)
- MIC ([12]; control of Compound 2 test): 1 µg/mL (≈ 2.08 µM)
- MIC ([13]; Acinetobacter baumannii, GC7687AMPC, control of Compound 1 test, read-out: MIC): 16 µg/mL (≈ 33.3 µM)
- MIC ([13]; control of Compound 2 test): 16 µg/mL (≈ 33.3 µM)
- MIC ([14]; control of Compound 2 test): 0.12 µg/mL (≈ 0.25 µM)
- MIC [14, 31]: 0.12 µg/mL (≈ 0.25 µM)
- MIC ([15]; control of Compound 2 test): 0.25 µg/mL (≈ 0.52 µM)
- MIC [15, 31]: 0.25 µg/mL (≈ 0.52 µM)
- MIC ([16]; control of Compound 1 test): 0.25 µg/mL (≈ 0.52 µM)
- MIC ([16]; control of Compound 2 test): 0.5 µg/mL (≈ 1.04 µM)
- MIC (E. coli GC 2894 (AmpC); control of Compound 1 test): 2 µg/mL (≈ 4.16 µM)
- MIC (E. coli GC 2894 (AmpC); control of Compound 2 test): 4 µg/mL (≈ 8.32 µM)
- MIC ([17]; Acinetobacter baumannii, control of Compound 1 test, read-out: MIC): 16 µg/mL (≈ 33.3 µM)
- MIC ([17]; control of Compound 2 test): 16 µg/mL (≈ 33.3 µM)
- MIC ([18]; control of Compound 1 test): 4 µg/mL (≈ 8.32 µM)
- MIC ([18]; control of Compound 2 test): 2 µg/mL (≈ 4.16 µM)
- MIC ([19]; control of Compound 2 test): 0.25 µg/mL (≈ 0.52 µM)
- MIC ([19]; Klebsiella aerogenes, control of Compound 1 test, read-out: MIC): 0.25 µg/mL (≈ 0.52 µM)
- MIC ([20]; control of Compound 1 test): 0.25 µg/mL (≈ 0.52 µM)
- MIC ([20]; control of Compound 2 test): 0.06 µg/mL (≈ 0.125 µM)
- MIC (E. coli GC 6539 CMY-2; [33]): 2 µg/mL (≈ 4.16 µM)
- MIC (E. coli GC 6539 CMY-2; Escherichia coli, GC6539CMY2, Cefepime alone, control of Compound 1 test, read-out: MIC): 2 µg/mL (≈ 4.16 µM)
- MIC [21, 33]: 2 µg/mL (≈ 4.16 µM)
- MIC ([21]; Klebsiella pneumoniae, GC7824FOX5, Cefepime alone, control of Compound 1 test, read-out: MIC): 2 µg/mL (≈ 4.16 µM)
- MIC [22, 33]: >16 µg/mL
- MIC ([22]; Klebsiella pneumoniae, GC7822ACT1, Cefepime alone, control of Compound 1 test, read-out: MIC): > 16 µg/mL
- MIC ([23]; control of Compound 1 test): 0.25 µg/mL (≈ 0.52 µM)
- MIC ([23]; control of Compound 2 test): 0.5 µg/mL (≈ 1.04 µM)
- MIC ([24]; control of Compound 2 test): 1 µg/mL (≈ 2.08 µM)
- MIC ([24]; Citrobacter freundii, control of Compound 1 test, read-out: MIC): 1 µg/mL (≈ 2.08 µM)
- MIC ([25]; control of Compound 1 test): 2 µg/mL (≈ 4.16 µM)
- MIC ([25]; control of Compound 2 test): 4 µg/mL (≈ 8.32 µM)
- MIC ([26]; control of Compound 2 test): 0.25 µg/mL (≈ 0.52 µM)
- MIC ([26]; Morganella morganii, control of Compound 1 test, read-out: MIC): 0.25 µg/mL (≈ 0.52 µM)
- MIC ([27]; control of Compound 1 test): 2 µg/mL (≈ 4.16 µM)
- MIC ([27]; control of Compound 2 test): 4 µg/mL (≈ 8.32 µM)
- MIC ([28]; control of Compound 1 test): 4 µg/mL (≈ 8.32 µM)
- MIC ([28]; control of Compound 2 test): 16 µg/mL (≈ 33.3 µM)
- MIC ([29]; control of Compound 1 test): 16 µg/mL (≈ 33.3 µM)
- MIC ([29]; control of Compound 2 test): > 16 µg/mL
- MIC ([30]; control of Compound 2 test): 16 µg/mL (≈ 33.3 µM)
- MIC [30, 31]: 16 µg/mL (≈ 33.3 µM)
